The values below come from US8129398B2 (priority 2008, dated 2012).

For this assay, the target named is T1, HIV-integrase (Human immunodeficiency virus type 1 group M subtype B, UniProt P12497).
T1 construct: Recombinant integrase (0.26 ng) was incubated with the beads
In words: HIV-Integrase Inhibition Activity (SPA bead integration assay with P33 labeled target DNA). It is filed as biochemical. The conditions noted are these: recombinant integrase, class symbols; read-out: in vitro activity. The procedure, abridged: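 Biotinylated substrate DNA on streptavidin SPA beads loaded with recombinant integrase (90 min, 37° C), washed, then inhibitor plus 0.1 fmol P33-labeled target DNA added. Reaction stopped with 10 mM EDTA; integration measured as CPM by scintillation, giving IC50 ranks.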
With `CC(=O)N1CCCC[C@H]1C(=O)NC12CCC(CC1)Cn1c2nc(C(=O)NCc2ccc(F)cc2)c(O)c1=O` [Example 265, 7,10-Ethanopyrimido[1,2-a]azepine-2-carboxamide, 10-[[[(2S)-1-acetyl-2-piperidinyl]carbonyl]amino]-N-[(4-fluorophenyl)methyl]-4,6,7,8,9,10-hexahydro-3-hydroxy-4-oxo-], the IC50 was less than 10 nM.

For the compound `CN(C)C(=O)C(=O)NC12CCC(CC1)Cn1c2nc(C(=O)NCc2c[nH]c3ccccc23)c(O)c1=O` [Example 235, Ethanediamide, N,N-dimethyl-N′-[6,7,8,9-tetrahydro-3-hydroxy-2-[[(1H-indol-3-ylmethyl)amino]carbonyl]-4-oxo-7,10-ethanopyrimido[1,2-a]azepin-10(4H)-yl]-], the IC50 was less than 10 nM.

On to `CN(C)C(=O)C(=O)NC12CCC(CC1)Cn1c2nc(C(=O)NCc2ccc(Cl)cc2)c(O)c1=O` [Example 374], for which the IC50 is less than 10 nM.

For the compound `COCCN(C)C(=O)C(=O)NC12CCC(CC1)Cn1c2nc(C(=O)NCc2ccc(F)c(C)c2)c(O)c1=O` [Example 134, N′-(2-((4-Fluoro-3-methylbenzyl)carbamoyl)-3-hydroxy-4-oxo-6,7,8,9-tetrahydro-7,10-ethanopyrimido[1,2-a]azepin-10(4H)-yl)-N-(2-methoxyethyl)-N-methylethanediamide], the IC50 is less than 10 nM.

`CN(C)CCN(C)C(=O)C(=O)NC12CCC(CC1)Cn1c2nc(C(=O)NCc2ccc(F)cc2)c(O)c1=O` [Example 93, N-(2-(Dimethylamino)ethyl)-N′-(2-((4-fluorobenzyl)carbamoyl)-3-hydroxy-4-oxo-6,7,8,9-tetrahydro-7,10-ethanopyrimido[1,2-a]azepin-10(4H)-yl)-N-methylethanediamide]: the IC50 was less than 10 nM.

Take `Cc1c(F)cc(Br)c(CNC(=O)c2nc3n(c(=O)c2O)CC2CCC3(N(C)C(=O)C(=O)N(C)C)CC2)c1Br` [Example 162, N-(2-((2,6-Dibromo-4-fluoro-3-methylbenzyl)carbamoyl)-3-hydroxy-4-oxo-6,7,8,9-tetrahydro-7,10-ethanopyrimido[1,2-a]azepin-10(4H)-yl)-N,N′,N′-trimethylethanediamide]: the IC50 is less than 10 nM.

`COCC(=O)N1CCN(C(=O)C(=O)NC23CCC(CC2)Cn2c3nc(C(=O)NCc3ccc(F)cc3)c(O)c2=O)CC1` [Example 141, N-(4-Fluorobenzyl)-3-hydroxy-10-(((4-(methoxyacetyl)-1-piperazinyl)(oxo)acetyl)amino)-4-oxo-4,6,7,8,9,10-hexahydro-7,10-ethanopyrimido[1,2-a]azepine-2-carboxamide]: the IC50 is less than 10 nM.

As to `CN1CCN(c2cccc(CNC(=O)c3nc4n(c(=O)c3O)CC3CCC4(NC(=O)C(=O)N(C)C)CC3)c2)CC1` [Example 127, N′-(3-Hydroxy-2-((3-(4-methyl-1-piperazinyl)benzyl)carbamoyl)-4-oxo-6,7,8,9-tetrahydro-7,10-ethanopyrimido[1,2-a]azepin-10(4H)-yl)-N,N-dimethylethanediamide], the IC50 is 10 to 100 nM.

`CN(C)C(=O)C(=O)N1CCC[C@H]1C(=O)NC12CCC(CC1)Cn1c2nc(C(=O)NCc2ccc(F)cc2)c(O)c1=O` [Example 269, 7,10-Ethanopyrimido[1,2-a]azepine-2-carboxamide, 10-[[[(2S)-1-[2-(dimethylamino)-1,2-dioxoethyl]-2-pyrrolidinyl]carbonyl]amino]-N-[(4-fluorophenyl)methyl]-4,6,7,8,9,10-hexahydro-3-hydroxy-4-oxo-]: the IC50 was less than 10 nM.

For the compound `Cn1cncc1CN1CCN(C(=O)C(=O)NC23CCC(CC2)Cn2c3nc(C(=O)NCc3ccc(F)cc3)c(O)c2=O)CC1` [Example 136, N-(4-Fluorobenzyl)-3-hydroxy-10-(((4-((1-methyl-1H-imidazol-5-yl)methyl)-1-piperazinyl)(oxo)acetyl)amino)-4-oxo-4,6,7,8,9,10-hexahydro-7,10-ethanopyrimido[1,2-a]azepine-2-carboxamide], the IC50 is less than 10 nM.

Regarding `CN(C)C(=O)C(=O)N(CCO)C12CCC(CC1)Cn1c2nc(C(=O)NCc2ccc(F)cc2)c(O)c1=O` [Example 175, N-(2-((4-Fluorobenzyl)carbamoyl)-3-hydroxy-4-oxo-6,7,8,9-tetrahydro-7,10-ethanopyrimido[1,2-a]azepin-10(4H)-yl)-N-(2-hydroxyethyl)-N′,N′-dimethylethanediamide], the IC50 was less than 10 nM.

`CO[C@H]1C[C@@H](C(=O)NC23CCC(CC2)Cn2c3nc(C(=O)NCc3ccc(F)c(C)c3)c(O)c2=O)N(C(=O)c2nccn2C)C1` [Example 298, 7,10-Ethanopyrimido[1,2-a]azepine-2-carboxamide, N-[(4-fluoro-3-methylphenyl)methyl]-4,6,7,8,9,10-hexahydro-3-hydroxy-10-[[[(2S,4S)-4-methoxy-1-[(1-methyl-1H-imidazol-2-yl)carbonyl]-2-pyrrolidinyl]carbonyl]amino]-4-oxo-]: the IC50 was less than 10 nM.

As for `Cc1ncn(C)c1C(=O)NC12CCC(CC1)Cn1c2nc(C(=O)NCc2ccc(F)cc2)c(O)c1=O` [Example 243, 7,10-Ethanopyrimido[1,2-a]azepine-2-carboxamide, 10-[[(1,4-dimethyl-1H-imidazol-5-yl)carbonyl]amino]-N-[(4-fluorophenyl)methyl]-4,6,7,8,9,10-hexahydro-3-hydroxy-4-oxo-], the IC50 lay in the range of 10 to 100 nM.

`Cn1nnc(C(=O)NC23CCC(CC2)Cn2c3nc(C(=O)NCc3ccc(F)cc3)c(O)c2=O)n1` [Example 250, 7,10-Ethanopyrimido[1,2-a]azepine-2-carboxamide, N-[(4-fluorophenyl)methyl]-4,6,7,8,9,10-hexahydro-3-hydroxy-10-[[(2-methyl-2H-tetrazol-5-yl)carbonyl]amino]-4-oxo-]: the IC50 was less than 10 nM.

For the compound `Cc1cc(CNC(=O)c2nc3n(c(=O)c2O)CC2CCC3(N(C)C(=O)C(=O)N3CC[C@@H](F)C3)CC2)ccc1F` [Example 164, N-(4-Fluoro-3-methylbenzyl)-10-((((3R)-3-fluoro-1-pyrrolidinyl)(oxo)acetyl)(methyl)amino)-3-hydroxy-4-oxo-4,6,7,8,9,10-hexahydro-7,10-ethanopyrimido[1,2-a]azepine-2-carboxamide], the IC50 was less than 10 nM.

Turning to `Cc1ncoc1C(=O)NC12CCC(CC1)Cn1c2nc(C(=O)NCc2ccc(F)cc2)c(O)c1=O` [Example 34, N-(4-Fluorobenzyl)-3-hydroxy-10-(((4-methyl-1,3-oxazol-5-yl)carbonyl)amino)-4-oxo-4,6,7,8,9,10-hexahydro-7,10-ethanopyrimido[1,2-a]azepine-2-carboxamide], the IC50 is less than 10 nM.

Turning to `CS(=O)(=O)NC12CCC(Cn3c1nc(C(=O)NCc1ccc(F)cc1)c(O)c3=O)C2` (centres unmarked) [Example 192, 7,10-Methanopyrimido[1,2-a]azepine-2-carboxamide, N-[(4-fluorophenyl)methyl]-4,6,7,8,9,10-hexahydro-3-hydroxy-10-[(methylsulfonyl)amino]-4-oxo-], the IC50 is less than 10 nM.

Consider `CN(CC1CCCO1)C(=O)C(=O)N(C)C12CCC(CC1)Cn1c2nc(C(=O)NCc2ccc(F)cc2)c(O)c1=O` (centres unmarked) [Example 165, N-(2-((4-Fluorobenzyl)carbamoyl)-3-hydroxy-4-oxo-6,7,8,9-tetrahydro-7,10-ethanopyrimido[1,2-a]azepin-10(4H)-yl)-N,N′-dimethyl-N′-(tetrahydro-2-furanylmethyl)ethanediamide], for which the IC50 is less than 10 nM.

Take `C=C[C@@H]1C[C@]1(NC(C)=O)C(=O)NC12CCC(CC1)Cn1c2nc(C(=O)NCc2ccc(F)cc2)c(O)c1=O` [Example 277, 7,10-Ethanopyrimido[1,2-a]azepine-2-carboxamide, 10-[[[(1R,2S)-1-(acetylamino)-2-ethenylcyclopropyl]carbonyl]amino]-N-[(4-fluorophenyl)methyl]-4,6,7,8,9,10-hexahydro-3-hydroxy-4-oxo-]: the IC50 lay within 10 to 100 nM.

With `O=C(NC12CCC(CC1)Cn1c2nc(C(=O)NCc2ccc(F)cc2)c(O)c1=O)C(=O)N1CCN(C(=O)c2ccccn2)CC1` [Example 140, N-(4-Fluorobenzyl)-3-hydroxy-4-oxo-10-((oxo(4-(2-pyridinylcarbonyl)-1-piperazinyl)acetyl)amino)-4,6,7,8,9,10-hexahydro-7,10-ethanopyrimido[1,2-a]azepine-2-carboxamide], the IC50 is less than 10 nM.

For the compound `CN(C)C(=O)C(=O)NC12CCC(CC1)Cn1c2nc(C(=O)NCCc2cccc(Cl)c2)c(O)c1=O` [Example 353], the IC50 is less than 10 nM.

Regarding `CN(C)C(=O)COC12CCC(CC1)Cn1c2nc(C(=O)NCc2ccc(F)cc2)c(O)c1=O` [Example 226, 7,10-Ethanopyrimido[1,2-a]azepine-2-carboxamide, 10-[2-(dimethylamino)-2-oxoethoxy]-N-[(4-fluorophenyl)methyl]-4,6,7,8,9,10-hexahydro-3-hydroxy-4-oxo-], the IC50 is 10 to 100 nM.

Regarding `Cc1cc(CNC(=O)c2nc3n(c(=O)c2O)CC[C@@H]2CC[C@@]3(NC(=O)C(=O)N(C)C)C2)ccc1F` [Example 415, Ethanediamide, N′-[(8S,11R)-2-[[[(4-fluoro-3-methylphenyl)methyl]amino]carbonyl-7,8,9,10-tetrahydro-3-hydroxy-4-oxo-8,11-methano-4H-pyrimido[1,2-a]azocin-1](6H)-yl]-N,N-dimethyl-], the IC50 is less than 10 nM.

Consider `CC(CCc1ccccc1)NC(=O)c1nc2n(c(=O)c1O)CC1CCC2(NC(=O)C(=O)N(C)C)CC1` (centres unmarked) [Example 339], for which the IC50 lay within 10 to 100 nM.

Turning to `O=C(NCc1ccc(F)cc1)c1nc2n(c(=O)c1O)CC1CCC2(Nc2ncc[nH]2)CC1` [Example 334, 7,10-Ethanopyrimido[1,2-a]azepine-2-carboxamide, N-[(4-fluorophenyl)methyl]-4,6,7,8,9,10-hexahydro-3-hydroxy-10-(1H-imidazol-2-ylamino)-4-oxo-], the IC50 was less than 10 nM.

`O=C(O)C(=O)NC12CCC(CC1)Cn1c2nc(C(=O)NCc2ccc(F)cc2)c(O)c1=O` [Example 84, ((2-((4-Fluorobenzyl)carbamoyl)-3-hydroxy-4-oxo-6,7,8,9-tetrahydro-7,10-ethanopyrimido[1,2-a]azepin-10(4H)-yl)amino) (oxo)acetic acid]: the IC50 was less than 10 nM.
